Each structure is given as a SMILES string.

In assay [1] the target is T1, Interleukin-1 receptor-associated kinase 4 (Homo sapiens, UniProt Q9NWZ3).
T1 sequence (Q9NWZ3 whole entry): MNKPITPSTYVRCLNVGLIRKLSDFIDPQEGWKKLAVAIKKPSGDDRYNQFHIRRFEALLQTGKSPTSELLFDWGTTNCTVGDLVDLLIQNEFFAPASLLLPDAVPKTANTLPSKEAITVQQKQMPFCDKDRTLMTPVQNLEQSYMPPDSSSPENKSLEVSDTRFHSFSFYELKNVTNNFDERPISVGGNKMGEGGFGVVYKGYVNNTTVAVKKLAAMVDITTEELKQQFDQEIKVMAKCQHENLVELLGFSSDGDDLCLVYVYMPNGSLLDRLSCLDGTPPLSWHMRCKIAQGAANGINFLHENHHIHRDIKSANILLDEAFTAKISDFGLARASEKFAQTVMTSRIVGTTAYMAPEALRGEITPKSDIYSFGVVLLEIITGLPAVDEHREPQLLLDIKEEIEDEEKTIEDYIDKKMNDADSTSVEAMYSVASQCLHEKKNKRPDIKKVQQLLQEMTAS
In words: Inhibition of N-terminal GST-tagged human IRAK4 (2 to end residues) expressed in baculovirus infected Sf9 cells using Ser/Thr 7 peptide as substrate in presence of ATP after 1 hr by Z'-LYTE assay.

The target in assay [2] is T2, Protein cereblon/Interleukin-1 receptor-associated kinase 4 (Homo sapiens, UniProt Q9NWZ3+Q96SW2). The assay is described as follows: Protac activity at E3 ubiquitin ligase/IRAK4 in human MCF7 cells assessed as IRAK4 degradation after 24 hrs by Western blot analysis relative to control. The assay is classed as cell-based. For orientation: A western blot detects proteins with antibodies after separation by electrophoresis.
Target sequence in this assay (Q96SW2 whole entry, looked up, one chain of several): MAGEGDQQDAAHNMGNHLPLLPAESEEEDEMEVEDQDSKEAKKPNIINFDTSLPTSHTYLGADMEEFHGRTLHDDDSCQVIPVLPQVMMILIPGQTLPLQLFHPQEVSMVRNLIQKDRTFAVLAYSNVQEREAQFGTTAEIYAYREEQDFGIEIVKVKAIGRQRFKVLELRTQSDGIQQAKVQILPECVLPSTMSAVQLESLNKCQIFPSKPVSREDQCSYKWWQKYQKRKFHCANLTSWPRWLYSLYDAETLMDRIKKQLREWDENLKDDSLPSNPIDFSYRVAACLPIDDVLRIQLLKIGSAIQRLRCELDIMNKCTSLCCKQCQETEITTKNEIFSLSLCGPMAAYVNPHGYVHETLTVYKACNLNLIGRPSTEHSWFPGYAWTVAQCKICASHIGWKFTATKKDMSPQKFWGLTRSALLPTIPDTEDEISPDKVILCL

Assay [3] deals with T2, Protein cereblon/Interleukin-1 receptor-associated kinase 4. The assay is described as follows: Protac activity at E3 ubiquitin ligase/IRAK4 in human MCF7 cells assessed as IRAK4 degradation after 24 hrs by Western blot analysis. Type of assay: cell-based.
Target sequence in this assay (Q96SW2 whole entry, one chain of several): as the sequence (Q96SW2 whole entry, looked up, one chain of several) above

As for `COc1cc2nn(C3CCN(CCOCCOc4ccc5c(c4)C(=O)N(C4CCC(=O)NC4=O)C5=O)CC3)cc2cc1NC(=O)c1cccc(C(F)(F)F)n1` (stereo not given), in assay [1], the IC50 is below 30 nM. Moreover, the Emax in assay [2] is above 50%. In addition, the DC50 in assay [3] is below 30 nM.
As to `O=C1CCC(N2C(=O)c3ccc(OC4CCC(CN5CCN(Cc6ccc7c(c6)nc(NC(=O)c6cccc(C(F)(F)F)c6)n7[C@H]6CC[C@@H](CO)CC6)CC5)CC4)cc3C2=O)C(=O)N1` (stereo not given in full), the IC50 in assay [1] is below 30 nM. Further, the maximal effect (Emax) in assay [2] is above 70%. In assay [3], the DC50 lay in the range of 30 to 100 nM.
For the molecule `O=C1CCC(N2C(=O)c3ccc(OCCOCCOCCN4CCN(Cc5ccc6c(c5)nc(NC(=O)c5cccc(C(F)(F)F)c5)n6[C@H]5CC[C@@H](CO)CC5)CC4)cc3C2=O)C(=O)N1` (stereo not given in full), in assay [1], the IC50 was below 30 nM. Besides, the maximum response (Emax) in assay [2] was above 70%. Also, the DC50 in assay [3] is below 30 nM.
In the case of `COc1cc2nn(C3CCN(CCOCCOc4ccc5c(c4)CN(C4CCC(=O)NC4=O)C5=O)CC3)cc2cc1NC(=O)c1cccc(C(F)(F)F)n1` (stereo not given), the IC50 in assay [1] is below 30 nM. Also, the Emax in assay [2] is above 50%. Besides, in assay [3], the DC50 is below 30 nM.
As to `O=C1CCC(N2C(=O)c3ccc(N4CCC(CN5CCN(Cc6ccc7c(c6)nc(NC(=O)c6cccc(C(F)(F)F)c6)n7[C@H]6CC[C@@H](CO)CC6)CC5)CC4)cc3C2=O)C(=O)N1` (stereo not given in full), the IC50 in assay [1] is below 30 nM. Besides, the Emax in assay [2] is above 70%. Also, the DC50 in assay [3] was below 30 nM.

By IC50 is commonly meant the concentration at which inhibition is half-maximal. As a reminder, the Emax is the size of the effect at its maximum, as opposed to the concentration needed. Broadly, the DC50 is the concentration giving 50% degradation.

The values are drawn from ChEMBL document CHEMBL4304808, “PROTAC Degradation of IRAK4 for the Treatment of Neurodegenerative and Cardiovascular Diseases” (ACS Med Chem Lett, 2019).
